Experiments:
Assay type in all cases: functional
[1] = system: Mus musculus; test: In vivo antileukemic activity against P-388 lymphocytic leukemia in BDF1 male mice at 15(mg/kg)/day intraperitoneal dose expressed as T/C
[2] = system: Mus musculus; test: Antileukemic activity of compound against the P-388 lymphocytic leukemic BDF1 male mice at 30(mg/kg)/day, administered intraperitoneally; 6.7/9.66 (Treated/control)
[3] = system: Mus musculus; test: Antileukemic activity of compound against the P-388 lymphocytic leukemic BDF1 male mice at 4(mg/kg)/day, administered intraperitoneally; 16.2/9.66 (Treated/control)
[4] = system: Mus musculus; test: In vivo antileukemic activity against P-388 lymphocytic leukemia in BDF1 male mice at 8(mg/kg)/day intraperitoneal dose expressed as T/C
[5] = system: Mus musculus; test: In vivo antileukemic activity against P-388 lymphocytic leukemia in BDF1 male mice at 30(mg/kg)/day intraperitoneal dose expressed as T/C
[6] = system: Mus musculus; test: Antileukemic activity of compound against the P-388 lymphocytic leukemic BDF1 male mice at 8(mg/kg)/day, administered intraperitoneally; 16.7/9.66 (Treated/control)
[7] = system: Mus musculus; test: In vivo antileukemic activity against P-388 lymphocytic leukemia in BDF1 male mice at 60 mg/kg/day intraperitoneal dose expressed as T/C
[8] = system: Mus musculus; test: Antileukemic activity of compound against the P-388 lymphocytic leukemic BDF1 male mice at 2(mg/kg)/day, administered intraperitoneally; 14.5/9.66 (Treated/control)
[9] = system: Mus musculus; test: In vivo antileukemic activity against P-388 lymphocytic leukemia in BDF1 male mice at 4(mg/kg)/day intraperitoneal dose expressed as T/C
[10] = system: Mus musculus; test: Antileukemic activity of compound against the P-388 lymphocytic leukemic BDF1 male mice at 60 mg/kg/day, administered intraperitoneally; 3.8/9.66 (Treated/control); details: route intraperitoneal
[11] = system: Mus musculus; test: Antileukemic activity of compound against the P-388 lymphocytic leukemic BDF1 male mice at 15(mg/kg)/day, administered intraperitoneally; 9.8/9.66 (Treated/control)
[12] = system: Mus musculus; test: In vivo antileukemic activity against P-388 lymphocytic leukemia in BDF1 male mice at 2(mg/kg)/day intraperitoneal dose expressed as T/C
[13] = system: Mus musculus; test: Antileukemic activity of compound against the P-388 lymphocytic leukemic BDF1 male mice at 25(mg/kg)/day, administered intraperitoneally; 18.0/9.66 (Treated/control)
[14] = system: Mus musculus; test: Antileukemic activity of compound against the P-388 lymphocytic leukemic BDF1 male mice at 12(mg/kg)/day, administered intraperitoneally; 10.8/9.66 (Treated/control)
[15] = system: Mus musculus; test: Antileukemic activity of compound against the P-388 lymphocytic leukemic BDF1 male mice at 15(mg/kg)/day, administered intraperitoneally; 10.8/9.66 (Treated/control)
[16] = system: Mus musculus; test: In vivo antileukemic activity against P-388 lymphocytic leukemia in BDF1 male mice at 12(mg/kg)/day intraperitoneal dose expressed as T/C
[17] = system: Mus musculus; test: Antileukemic activity of compound against the P-388 lymphocytic leukemic BDF1 male mice at 8(mg/kg)/day, administered intraperitoneally; 11.9/9.66 (Treated/control)
[18] = system: Mus musculus; test: In vivo antileukemic activity against P-388 Lymphocytic Leukemia in BDF1 male mice at 15(mg/kg)/day intraperitoneal dose expressed as T/C
[19] = system: Mus musculus; test: Antileukemic activity of compound against the P-388 lymphocytic leukemic BDF1 male mice at 15(mg/kg)/day, administered intraperitoneally; 11.9/9.66 (Treated/control)
[20] = system: Mus musculus; test: In vivo antileukemic activity against P-388 lymphocytic leukemia in BDF1 male mice at 3(mg/kg)/day intraperitoneal dose expressed as T/C
[21] = system: Mus musculus; test: Antileukemic activity of compound against the P-388 lymphocytic leukemic BDF1 male mice at 8(mg/kg)/day, administered intraperitoneally; 15.7/9.66 (Treated/control)
[22] = system: Mus musculus; test: In vivo antileukemic activity against P-388 Lymphocytic Leukemia in BDF1 male mice at 60 mg/kg/day intraperitoneal dose expressed as T/C
[23] = system: Mus musculus; test: Antileukemic activity of compound against the P-388 lymphocytic leukemic BDF1 male mice at 3(mg/kg)/day, administered intraperitoneally; 12.9/9.66 (Treated/control)
[24] = system: Mus musculus; test: In vivo antileukemic activity against P-388 Lymphocytic Leukemia in BDF1 male mice at 25(mg/kg)/day intraperitoneal dose expressed as T/C
[25] = system: Mus musculus; test: Antileukemic activity of compound against the P-388 lymphocytic leukemic BDF1 male mice at 25(mg/kg)/day, administered intraperitoneally; 12.3/9.66 (Treated/control)
[26] = system: Mus musculus; test: Antileukemic activity of compound against the P-388 lymphocytic leukemic BDF1 male mice at 60 mg/kg/day, administered intraperitoneally; 3.0/9.66 (Treated/control); details: route intraperitoneal
[27] = system: Mus musculus; test: Antileukemic activity of compound against the P-388 lymphocytic leukemic BDF1 male mice at 25(mg/kg)/day, administered intraperitoneally; 17.2/9.66 (Treated/control)
[28] = system: Mus musculus; test: In vivo antileukemic activity against P-388 lymphocytic leukemia in BDF1 male mice at 25(mg/kg)/day intraperitoneal dose expressed as T/C
[29] = system: Mus musculus; test: Antileukemic activity of compound against the P-388 lymphocytic leukemic BDF1 male mice at 4(mg/kg)/day, administered intraperitoneally; 10.6/9.66 (Treated/control)
[30] = system: Mus musculus; test: Antileukemic activity of compound against the P-388 lymphocytic leukemic BDF1 male mice at 8(mg/kg)/day, administered intraperitoneally; 13.7/9.66 (Treated/control)
[31] = system: Mus musculus; test: Antileukemic activity of compound against the P-388 lymphocytic leukemic BDF1 male mice at 2(mg/kg)/day, administered intraperitoneally; 11.2/9.66 (Treated/control)
[32] = system: Mus musculus; test: Antileukemic activity of compound against the P-388 lymphocytic leukemic BDF1 male mice at 50(mg/kg)/day, administered intraperitoneally; 13.4/9.66 (Treated/control)
[33] = system: Mus musculus; test: In vivo antileukemic activity against P-388 lymphocytic leukemia in BDF1 male mice at 50(mg/kg)/day intraperitoneal dose expressed as T/C
[34] = system: Mus musculus; test: In vivo antileukemic activity against P-388 lymphocytic leukemia in BDF1 male mice at 12.5 mg/kg/day intraperitoneal dose expressed as T/C
[35] = system: Mus musculus; test: Antileukemic activity of compound against the P-388 lymphocytic leukemic BDF1 male mice at 12.5 mg/kg/day, administered intraperitoneally; 16.0/9.66 (Treated/control); details: route intraperitoneal
[36] = system: Mus musculus; test: Antileukemic activity of compound against the P-388 lymphocytic leukemic BDF1 male mice at 4(mg/kg)/day, administered intraperitoneally; 16.5/9.66 (Treated/control)
[37] = system: Mus musculus; test: Antileukemic activity of compound against the P-388 lymphocytic leukemic BDF1 male mice at 60 mg/kg/day, administered intraperitoneally; 4.7/9.66 (Treated/control); details: route intraperitoneal
[38] = system: Mus musculus; test: Antileukemic activity of compound against the P-388 lymphocytic leukemic BDF1 male mice at 30(mg/kg)/day, administered intraperitoneally; 7/9.66 (Treated/control)
[39] = system: Mus musculus; test: Antileukemic activity of compound against the P-388 lymphocytic leukemic BDF1 male mice at 8(mg/kg)/day, administered intraperitoneally; 18.8/9.66 (Treated/control)
[40] = system: Mus musculus; test: Antileukemic activity of compound against the P-388 lymphocytic leukemic BDF1 male mice at 15(mg/kg)/day, administered intraperitoneally; 9/9.66 (Treated/control)
[41] = system: Mus musculus; test: Antileukemic activity of compound against the P-388 lymphocytic leukemic BDF1 male mice at 2(mg/kg)/day, administered intraperitoneally; 11.5/9.66 (Treated/control)
[42] = system: Mus musculus; test: Antileukemic activity of compound against the P-388 lymphocytic leukemic BDF1 male mice at 8(mg/kg)/day, administered intraperitoneally; 10.5/9.66 (Treated/control)

C=C1C(=O)O[C@@H]2C[C@@H](C)[C@@H]3C=CC(=O)[C@@]3(C)[C@@H](OC(=O)CCCCC(=O)O[C@H]3[C@@H]4C(=C)C(=O)O[C@@H]4C[C@@H](C)[C@@H]4C=CC(=O)[C@]43C)[C@H]12
T/C [1]: 101% | Average survival (days) [2]: 6.7 | Average survival (days) [3]: 16.2 | T/C [4]: 173% | T/C [5]: 69% | Average survival (days) [6]: 16.7 | T/C [7]: 40% | Average survival (days) [8]: 14.5 | T/C [9]: 167% | Average survival (days) [10]: 3.8 | Average survival (days) [11]: 9.8 | T/C [12]: 150%

O=c1[nH]cc(F)c(=O)[nH]1 [FLUOROURACIL]
Average survival (days) [13]: 18 | T/C [7]: 186%

C[C@@H]1C[C@H]2OC(=O)[C@@H](C)[C@H]2[C@H](OC(=O)CC(=O)O[C@H]2[C@@H]3[C@H](C)C(=O)O[C@@H]3C[C@@H](C)[C@@H]3C=CC(=O)[C@]32C)[C@]2(C)C(=O)C=C[C@@H]12
Average survival (days) [14]: 10.8 | T/C [1]: 112% | Average survival (days) [15]: 10.8 | T/C [16]: 112% | T/C [4]: 124% | Average survival (days) [17]: 11.9

C=C1C(=O)O[C@@H]2C[C@@H](C)[C@@H]3C=CC(=O)[C@@]3(C)[C@@H](O)[C@H]12 [HELENALIN]
T/C [18]: 123% | Average survival (days) [19]: 11.9 | T/C [4]: 162% | T/C [20]: 134% | Average survival (days) [21]: 15.7 | T/C [22]: 31% | Average survival (days) [23]: 12.9 | T/C [24]: 127% | Average survival (days) [25]: 12.3 | Average survival (days) [26]: 3

C=C1C(=O)O[C@@H]2C[C@@H](C)[C@@H]3C=CC(=O)[C@@]3(C)[C@@H](OC(=O)CCC(=O)O[C@H]3[C@@H]4C(=C)C(=O)O[C@@H]4C[C@@H](C)[C@@H]4C=CC(=O)[C@]43C)[C@H]12
Average survival (days) [27]: 17.2 | T/C [28]: 178% | Average survival (days) [29]: 10.6 | Average survival (days) [30]: 13.7 | T/C [4]: 168% | Average survival (days) [31]: 11.2 | T/C [9]: 110% | Average survival (days) [32]: 13.4 | T/C [33]: 140% | T/C [34]: 166% | Average survival (days) [35]: 16 | T/C [12]: 116%

C=C1C(=O)O[C@@H]2C[C@@H](C)[C@@H]3C=CC(=O)[C@@]3(C)[C@@H](OC(=O)CCCC(=O)O[C@H]3[C@@H]4C(=C)C(=O)O[C@@H]4C[C@@H](C)[C@@H]4C=CC(=O)[C@]43C)[C@H]12
Average survival (days) [36]: 16.5 | T/C [1]: 93% | T/C [4]: 195% | Average survival (days) [37]: 4.7 | T/C [5]: 72% | T/C [7]: 48% | Average survival (days) [38]: 7 | T/C [9]: 171% | Average survival (days) [39]: 18.8 | Average survival (days) [40]: 9 | Average survival (days) [41]: 11.2 | T/C [12]: 116%

CC1C(=O)O[C@@H]2C[C@@H](C)[C@@H]3CCC(=O)[C@@]3(C)[C@@H](O)[C@H]12 (stereo partly specified)
T/C [7]: 109% | Average survival (days) [42]: 10.5
